Data reported in patent US20250099474A1 (priority 2022, published 2025).

Legend:
[1] = Phase I clinical study Part 1, single administration, pharmacokinetics and safety; type: in vivo, human; details: human, plasma, oral; in any dose group, single administration
Description: Test Example 3-1 Phase I Clinical Study
All studies were conducted based on Good Clinical Practice (GCP). The phase I clinical study was composed of Part 1 to Part 7, and in Part 1, the safety, tolerability, and pharmacokinetics were confirmed when the fumaric acid cocrystal Form I crystal of the compound represented by Formula (I) was administered once and when it was administered repeatedly.
The subjects who were determined to be eligible by the screening examination were randomly assigned to either the active drug group (see the following table for the dose of the fumaric acid cocrystal Form I crystal of the compound represented by Formula (I)) or the placebo group on the day before the day of administration of the investigational new drug (Day −1). On Day 1, the investigational new drug (active drug or placebo) was administered once in the fasted state.

[2] = single ascending dose study in healthy Japanese adults; cited from earlier work

In the case of `Cn1cnc(Cn2c(=O)[nH]/c(=N\c3cc4cn(C)nc4cc3Cl)n(Cc3cc(F)c(F)cc3F)c2=O)n1` [compound represented by Formula (I), (6E)-6-[(6-chloro-2-methyl-2H-indazol-5-yl)imino]-3-[(1-methyl-1H-1,2,4-triazol-3-yl)methyl]-1-[(2,4,5-trifluorophenyl)methyl]-1,3,5-triazinane-2,4-dione], the half-life [1] is listed as greater than 40 h and the Safety and tolerability [2] is listed as “good safety and tolerability were confirmed”.
